The results in this text go back to article PMC5679629, “Flavin-containing monooxygenase 3 (FMO3) role in busulphan metabolic pathway” (PLoS ONE, 2017).

Each structure is given as a SMILES string.

Data set [1] has as its target T1, CYP2C8 (Homo sapiens, UniProt P10632).
T1 construct: purchased BD Biosciences; host or cells: baculovirus infected insect cells
T1 sequence (P10632 1-490): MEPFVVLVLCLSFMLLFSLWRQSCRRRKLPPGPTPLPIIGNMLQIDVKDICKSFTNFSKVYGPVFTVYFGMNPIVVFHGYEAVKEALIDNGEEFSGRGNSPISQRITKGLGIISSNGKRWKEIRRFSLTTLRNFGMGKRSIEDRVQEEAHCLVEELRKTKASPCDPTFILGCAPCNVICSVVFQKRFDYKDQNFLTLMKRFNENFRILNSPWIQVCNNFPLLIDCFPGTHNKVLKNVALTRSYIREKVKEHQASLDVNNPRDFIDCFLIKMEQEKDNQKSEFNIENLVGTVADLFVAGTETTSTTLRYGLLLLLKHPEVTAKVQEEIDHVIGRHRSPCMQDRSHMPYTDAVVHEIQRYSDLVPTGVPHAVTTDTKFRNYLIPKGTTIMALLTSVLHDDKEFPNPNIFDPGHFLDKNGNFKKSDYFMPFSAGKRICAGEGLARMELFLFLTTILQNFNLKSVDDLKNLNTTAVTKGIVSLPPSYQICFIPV
Nature of the data set: THT disappearance with recombinant cDNA-expressed enzyme microsomes. The class given is in vitro ADME. As to conditions: 25μM THT, 35pmol CYP/mL. Here is the method: (§1) To identify the enzymes involved in Bu metabolism, 11 microsomal batches (BD Biosciences, Stockholm, Sweden), each containing a separate cDNA-expressed enzyme, were incubated with 25μM THT. The microsomes contained FMO3, CYP1A1, CYP1A2, CYP2B6, CYP2C8, CYP2C9, CYP2C19, CYP2D6, CYP2E1, CYP3A4 or CYP4A11. Time curves (0, 5, 15, 30 and 60min) were performed at a concentration of 0.35mg protein /mL for FMO3 and 35pmol CYP/mL for the CYP enzymes. The recombinant enzymes were produced from human cDNA expressing each of them using baculovirus expression system. Baculovirus infected insect cells were used to prepare these microsomes.
(§2) Incubations were performed in triplicate and negative controls (excluding NADPH, microsomes, THT or by terminating the incubations before the addition of NADPH) were run in parallel.
(§3) To measure THT and the secondary metabolite, sulfolane, the reactions were terminated by adding dichloromethane. Samples (180μL) were added to 10μM nicotine (20μL, Merck, Hoherbrunn, Germany), used as an internal standard, before extraction. The matrix was extracted by liquid-liquid extraction with dichloromethane (equal volumes, 200μL) after 30 sec of high speed vortexing. After extraction and centrifugation at 16000 g for 10 min, the organic phase was transferred into GC-MS tubes. […] Samples (180μL) were added to 10 μM of 3-methylsulfolane (20μL, TCI, Tokyo, Japan), used as an internal standard. The matrix was lyophilized (< 1 mbar at 40°C under N2 stream) to dryness, the residue was dissolved in 10 μL water and 200 μL of ethyl acetate was added for extraction. Samples were vortexed for 30 sec at high speed and centrifuged at 16000 g for 10 min. The organic phase was transferred to GC-MS tubes.
(§4) Concentrations of THT and its metabolites were measured using GC-MS [18] after validation for use with microsomal incubations according to the international guidelines.

Data set [2] concerns the target T2, FMO3 (Homo sapiens, UniProt P31513).
T2 construct: purchased BD Biosciences; host or cells: baculovirus infected insect cells
T2 sequence (P31513 1-532): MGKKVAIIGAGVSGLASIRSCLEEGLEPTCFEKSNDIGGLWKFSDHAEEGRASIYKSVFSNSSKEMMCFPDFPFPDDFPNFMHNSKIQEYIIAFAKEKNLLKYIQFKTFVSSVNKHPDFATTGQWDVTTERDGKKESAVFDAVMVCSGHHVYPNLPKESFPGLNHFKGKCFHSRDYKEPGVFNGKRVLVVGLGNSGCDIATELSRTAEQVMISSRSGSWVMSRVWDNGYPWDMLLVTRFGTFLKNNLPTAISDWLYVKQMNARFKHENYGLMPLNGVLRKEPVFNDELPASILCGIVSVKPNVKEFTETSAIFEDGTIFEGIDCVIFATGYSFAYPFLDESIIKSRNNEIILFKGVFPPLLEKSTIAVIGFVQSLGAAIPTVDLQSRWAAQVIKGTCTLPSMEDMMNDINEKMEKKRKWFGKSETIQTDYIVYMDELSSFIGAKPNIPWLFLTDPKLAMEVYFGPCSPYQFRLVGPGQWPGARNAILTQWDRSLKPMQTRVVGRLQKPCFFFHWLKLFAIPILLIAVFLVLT
The data set is described as above. The class given is in vitro ADME. As to conditions: 25μM THT, 0.35mg protein/mL. Here is the method:
as §1, §2, §3, §4

`C1CCSC1` [THT, tetrahydrothiophene]: in data set [1], the v0 stood at 2.45 nmol/min/mL and the v0/CYP came out at 0.07 nmol/min/pmol CYP. In addition, the “THT disappeared (metabolized) by recombinant FMO3” value in data set [2] (within 15min) is recorded as 96%. In data set [2] (FMO3), the CLint value is given as 709.14 μL/min/mg protein and the v0 worked out at 6.87 nmol/min/mL.
